How the values were obtained:
[1] = test system: caspase activation in A549 cells; test: Real-time monitoring of caspase activation; format: cell-based; conditions: 4 μM final concentration, 50 μM PBI-3741, 40 ng/ml NANOLUC
Description: A549 cells were plated at 1,000 cells/well into wells of a 384-well assay plate. 50 μM PBI-3741 (a pro-furimazine caspase substrate) and 40 ng/ml NANOLUC luciferase enzyme were added to the cells. To induce apoptosis, staurosporine was added to the cells at a 4 μM final concentration. The induction of apoptosis and activation of caspase were measured in real-time.

[2] = Stability of pro-furimazine substrate PBI-4600 in cell culture media (HPLC purity); format: physicochemical; conditions: 50 μM in RPMI cell culture media, room temperature or 37° C., up to 190 hours
Description: PBI-4600 (50 μM) was incubated in RPMI cell culture media at room temperature (RT) or 37° C. for increasing time points, up to 190 hours. HPLC analysis was performed to determine the purity of PBI-4600 at various time points.

[3] = test system: Cardiomyocyte cells; test: Real-time measuring of drug induced changes in viability; format: cell-based; conditions: 200 μg/ml final, after multiple days of cell growth; 40 uM PBI-4600, 100 ng/ml NANOLUC
Description: Cardiomyocyte cells were plated and grown in media containing 40 uM PBI-4600 pro-substrate and 100 ng/ml NANOLUC luciferase protein sensor in a 37° C., 5% CO2 incubator. At various time points, luminescence was monitored on a Tecan M1000 plate reader. After multiple days of cell growth, digitonin was added to a final concentration of 200 μg/ml. Luminescence was read continually, starting immediately after digitonin addition.

[4] = test system: A549 cells; test: Measuring cell death in real-time; format: cell-based; conditions: 1% final concentration, A549 cells 1,000 cells/well; 40 μM PBI-4600, 100 ng/ml NANOLUC
Description: A549 cells were plated into wells of a 384-well plate at 1,000 cells/well in the presence of 40 μM PBI-4600 pro-substrate and 100 ng/ml NANOLUC luciferase protein sensor. The cells were incubated and the luminescence signal was monitored at various time points on a Tecan M1000 plate reader. Triton X-100 was then added to a final concentration of 1%, and compared to control cells that received media only. Luminescence was continually monitored.

[5] = test system: reactive oxygen species (ROS) in A549 cells; test: Real-time monitoring of reactive oxygen species (ROS); format: cell-based; conditions: 200 μM, 10, 25 or 50 μM PBI-4759, 40 ng/ml NANOLUC
Description: A549 cells were plated at 1,000 cells/well into wells of a 384-well plate and incubated overnight. Then, either 10, 25, or 50 μM of a pro-furimazine hydrogen peroxide substrate, PBI-4759, and 40 ng/ml NANOLUC luciferase protein sensor were added to the cells. Menadione (200 μM), a known ROS inducer, or a vehicle control (DMSO) was added to the cells. Luminescence was monitored over time using a Tecan M1000 plate reader.

[6] = Protein sensor stability in cell culture; format: physicochemical; conditions: 40 ng/ml in A549 cell culture with 50 μM PBI-4600; signal compared with freshly added sensor
Description: A549 cells were plated at 250 cells/well into wells of a 384-well assay plate. 50 μM PBI-4600 pro-substrate and 40 ng/ml NANOLUC luciferase protein sensor were added to the cell culture and incubated for 72 hours. After incubation, 40 ng/ml NANOLUC luciferase protein sensor was added to the cell culture, and the signal was monitored 1.5 hours later.

For `CN[C@@H]1C[C@H]2O[C@@](C)([C@@H]1OC)n1c3ccccc3c3c4c(c5c6ccccc6n2c5c31)C(=O)NC4` [staurosporine], the “change in luminescence (caspase activation) during treatment” value [1] was “increase in luminescence”.

With `CC1=C(C)C(=O)C(C(C)(C)CC(=O)N(C)CCN(C)C(=O)Oc2c(Cc3ccco3)nc3c(Cc4ccccc4)nc(-c4ccccc4)cn23)=C(C)C1=O` [PBI-4600] the “purity of PBI-4600 (HPLC) after incubation” value [2] was “greater than 90%”.

For `C[C@@H]1CC[C@@]2(OC1)O[C@H]1[C@@H](O)[C@H]3[C@@H]4CC[C@H]5C[C@@H](O[C@@H]6O[C@H](CO)[C@H](O[C@@H]7O[C@H](CO)[C@@H](O)[C@H](O[C@@H]8OC[C@@H](O)[C@H](O)[C@H]8O)[C@H]7O[C@@H]7O[C@H](CO)[C@H](O)[C@H](O[C@@H]8O[C@H](CO)[C@@H](O)[C@H](O)[C@H]8O)[C@H]7O)[C@H](O)[C@H]6O)[C@H](O)C[C@]5(C)[C@H]4CC[C@]3(C)[C@H]1[C@@H]2C` [digitonin], the “change in luminescence signal (cell viability) after addition” value [3] was “rapid decrease in signal”.

For Triton X-100, the “change in luminescence signal (cell viability) after addition” value [4] was “rapid decrease in signal”.

For `CC1=CC(=O)c2ccccc2C1=O` [menadione, Menadione], the “time at which maximum luminescence signal was reached after addition” value [5] was 5 h.

B1: NANOLUC luciferase: modified, enhanced luciferase enzyme from Oplophorus, Promega Corporation, SEQ ID NO: 1 (protein)
chain: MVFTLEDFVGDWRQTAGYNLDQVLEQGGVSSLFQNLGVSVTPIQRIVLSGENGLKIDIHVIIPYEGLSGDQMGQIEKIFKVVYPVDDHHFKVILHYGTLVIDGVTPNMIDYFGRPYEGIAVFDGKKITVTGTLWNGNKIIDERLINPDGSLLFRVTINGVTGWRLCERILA
For B1, the “time stable in cell culture conditions” value [6] was “at least 72 h”.
